According to US20130053385A1, “METHOD OF COMBATING AND CONTROLLING PESTS” (SYNGENTA LIMITED, priority 2009, published 2013):
Like-named read-outs stand apart in the source and are kept apart here.

Assays:
Format in all cases: in vivo
[1] = system: Plutella xylostella (Diamond Back Moth); test: Activity against Plutella xylostella, larvicide, feeding/residual contact activity, preventive (artificial diet MTP, Example B5); conditions: 120 h, read-out: activity (larval mortality, antifeedant, growth regulation)
Procedure: Activity Against Plutella xylostella (Diamond Back Moth)
(§1) (larvicide, feeding/residual contact activity, preventive)
24-well microtiter plate (MTP) with artificial diet is treated with test solutions by pipetting. After drying, the MTP's are infested with larvae (L2)(10-15 per well). After an incubation period of 5 days, samples are checked for larval mortality, antifeedant and growth regulation.

[2] = system: Myzus persicae (Green Peach Aphid); test: Activity against Myzus persicae, mixed population, feeding/residual contact activity, preventive (sunflower leaf discs, Example B1); conditions: foliar, 144 h, 400 ppm, sprayed sunflower leaf discs, 6 days incubation, mixed-age aphids, read-out: activity (mortality)
Procedure: (§2) Activity Against Myzus persicae (Green Peach Aphid)
(§3) (mixed population, feeding/residual contact activity, preventive)
Sunflower leaf discs are placed on agar in a 24-well microtiter plate and sprayed with test solutions. After drying, the leaf discs are infested with an aphid population of mixed ages. After an incubation period of 6 days, samples are checked for mortality and special effects (e.g. phytotoxicity).

[3] = system: Tetranychus urticae (Two-Spotted Spider Mite); test: Activity against Tetranychus urticae, mixed population, feeding/residual contact activity, preventive (bean leaf discs, Example B4); conditions: foliar, 192 h, 400 ppm, sprayed bean leaf discs, 8 days, mixed-age mites, read-out: activity (egg, larval and adult mortality)
Text: Activity Against Tetranychus urticae (Two-Spotted Spider Mite)
as §3
Bean leaf discs on agar in 24-well microtiter plates are sprayed with test solutions. After drying, the leaf discs are infested with mite populations of mixed ages. 8 days later, discs are checked for egg mortality, larval mortality, and adult mortality.

[4] = system: Thrips tabaci (Onion Thrips); test: Activity against Thrips tabaci, mixed population, feeding/residual contact activity, preventive (sunflower leaf discs, Example B3); conditions: foliar, 144 h, sprayed sunflower leaf discs, 6 days incubation, mixed-age thrips
Procedure: Activity Against Thrips tabaci (Onion Thrips)
as §3
Sunflower leaf discs are placed on agar in a 24-well microtiter plate and sprayed with test solutions. After drying, the leaf discs are infested with a thrips population of mixed ages. After an incubation period of 6 days, samples are checked for mortality and special effects (e.g. phytotoxicity).

[5] = system: Diabrotica balteata (Corn Root Worm); test: Activity against Diabrotica balteata, larvicide, feeding/residual contact activity, preventive (artificial diet MTP, Example B6); conditions: 120 h, L2 larvae, 5 days incubation, read-out: activity (larval mortality, antifeedant, growth regulation)
Procedure: Activity Against Diabrotica balteata (Corn Root Worm)
as §1
24-well microtiter plate (MTP) with artificial diet is treated with test solutions by pipetting. After drying, the MTP's are infested with larvae (L2)(6-10 per well). After an incubation period of 5 days, samples are checked for larval mortality, antifeedant and growth regulation.

[6] = system: Myzus persicae (Green Peach Aphid); test: Activity against Myzus persicae, mixed population, feeding activity (sucrose solution through Parafilm, Example B7); conditions: 120 h, in sucrose solution, 5 days after infestation
Text: as §2
(mixed population, feeding activity)
Test compounds are applied with a pipette into 24 well plates and mixed with a sucrose solution. The plates are closed with a stretched Parafilm. A plastic stencil with 24 holes is placed onto the plate and infested pea seedlings are placed directly on the Parafilm. The infested plate is closed with a gel blotting paper and another plastic stencil, and then turned upside down. 5 days after infestation the samples are checked for mortality.

[7] = 400 ppm, artificial diet, L2 larvae, 5 days incubation

Structure (SMILES) | mortality at 400 ppm [1, 7] | mortality at 400 ppm [2] | mortality at 400 ppm [3] | mortality at 400 ppm [4] | mortality at 400 ppm [5] | mortality at 25 ppm [6] | mortality at 400 ppm [1]
Cc1cc(C)c(C2=C(OC(=O)C(C)(C)C)CC(CC3CCOCC3)C2=O)c(C)c1 (stereo not shown) [Compound P5] | > 80% |  |  |  |  |  | 
Cc1cc(C)c(C2=C(OC(=O)C(C)(C)C)CC(CC3CCOC3)C2=O)c(C)c1 (stereo not shown) [Compound P7] | > 80% | > 80% | > 80% | > 80% |  |  | 
Cc1cc(C)c(C2=C(OC(=O)c3ccccc3)CC(CC3CCOC3)C2=O)c(C)c1 (stereo not shown) [Compound P17] |  | > 80% | > 80% | > 80% |  |  | 
COc1ccc(C(=O)OC2=C(c3c(C)cc(C)cc3C)C(=O)C(CC3CCOC3)C2)cc1 (stereo not shown) [Compound P18] |  |  | > 80% | > 80% |  |  | 
CCCOC(=O)OC1=C(c2c(C)cc(C)cc2C)C(=O)C(CC2CCOC2)C1 (stereo not shown) [Compound P20] | > 80% |  |  | > 80% |  |  | 
Cc1cc(C)c(C2=C(OC(=O)OCC(C)C)CC(CC3CCOC3)C2=O)c(C)c1 (stereo not shown) [Compound P23] |  |  | > 80% | > 80% |  |  | 
CCSC(=O)OC1=C(c2c(C)cc(C)cc2C)C(=O)C(CC2CCOC2)C1 (stereo not shown) [Compound P30] |  |  |  | > 80% |  |  | 
Cc1cc(C)c(C2=C(OC(=O)C(C)(C)C)CC(CC3CCCOC3)C2=O)c(C)c1 (stereo not shown) [Compound P37] | > 80% |  | > 80% |  |  |  | 
Cc1cc(C)c(C2=C(OC(=O)OC(C)C)CC(CC3CCOCC3)C2=O)c(C)c1 (stereo not shown) [Compound P43] |  |  |  | > 80% |  |  | 
Cc1cc(C)c(C2=C(OC(=O)c3ccccc3)CC(CC3CCOCC3)C2=O)c(C)c1 (stereo not shown) [Compound P44] | > 80% | > 80% | > 80% | > 80% | > 80% |  | 
CON1CCC(CC2CC(OC(C)=O)=C(c3c(C)cc(C)cc3C)C2=O)CC1 (stereo not shown) [Compound P50] |  | > 80% |  | > 80% |  |  | 
CON1CCC(CC2CC(OC(=O)c3ccccc3)=C(c3c(C)cc(C)cc3C)C2=O)CC1 (stereo not shown) [Compound P55] |  |  | > 80% | > 80% |  |  | 
CON1CCC(CC2CC(OC(=O)OC(C)C)=C(c3c(C)cc(C)cc3C)C2=O)CC1 (stereo not shown) [Compound P56] |  |  | > 80% | > 80% |  |  | 
COc1ccc(C(=O)OC2=C(c3c(C)cc(C)cc3C)C(=O)CC2CC2CCOC2)cc1 (stereo not shown) [Compound P71] |  | > 80% | > 80% |  | > 80% |  | 
Cc1cc(C)c(C2C(=O)CC(CC3CCOCC3)C2=O)c(C)c1 (stereo not shown) [Compound T4] | > 80% |  |  | > 80% |  |  | 
Cc1cc(C)c(C2C(=O)CC(CC3CCOC3)C2=O)c(C)c1 (stereo not shown) [Compound T5] | > 80% | > 80% |  | > 80% |  |  | 

Structure (SMILES) | mortality at 400 ppm [1, 7] | mortality at 400 ppm [2] | mortality at 400 ppm [3] | mortality at 400 ppm [4] | mortality at 400 ppm [5] | mortality at 25 ppm [6] | mortality at 400 ppm [1]
Cc1cc(C)c(C2C(=O)C/C(=C\C3CCOCC3)C2=O)c(C)c1 (stereo not shown) [Compound T8] | > 80% | > 80% | > 80% | > 80% |  |  | 
Cc1cc(C)c(C2C(=O)C/C(=C\C3CCCOC3)C2=O)c(C)c1 (stereo not shown) [Compound T14] | > 80% | > 80% | > 80% | > 80% |  | > 80% | 
Cc1cc(C)c(C2C(=O)CC(CC3CCCOC3)C2=O)c(C)c1 (stereo not shown) [Compound T16] | > 80% | > 80% |  | > 80% |  |  | 
Cc1cc(C)c(C2C(=O)C/C(=C\C3CCOC3)C2=O)c(C)c1 (stereo not shown) [Compound T17] | > 80% | > 80% | > 80% | > 80% | > 80% |  | 
CON1CCC(CC2CC(=O)C(c3c(C)cc(C)cc3C)C2=O)CC1 (stereo not shown) [Compound T23] |  | > 80% |  | > 80% |  |  | 
Cc1cc(C)c(C2C(=O)C/C(=C\C3CCN(S(C)(=O)=O)C3)C2=O)c(C)c1 (stereo not shown) [Compound T31] | > 80% |  | > 80% |  |  |  | 
CCSC(=O)N1CCC(/C=C2\CC(=O)C(c3c(C)cc(C)cc3C)C2=O)C1 (stereo not shown) [Compound T33] |  |  |  |  |  |  | > 80%
Cc1cc(C)c(C2C(=O)CC(CC3CCOC(C)(C)C3)C2=O)c(C)c1 (stereo not shown) [Compound T39] |  |  | > 80% |  | > 80% |  | 
Cc1cccc(C)c1C1C(=O)CC(CC2CCOCC2)C1=O (stereo not shown) [Compound T52] |  | > 80% | > 80% | > 80% |  |  | 
Cc1cc(C)c(C2C(=O)C/C(=C\C3CCN(C(=O)OC(C)(C)C)CC3)C2=O)c(C)c1 (stereo not shown) [Compound T54] |  |  | > 80% |  | > 80% |  | 
Cc1cc(-c2ccc(F)cc2)cc(C)c1C1C(=O)C/C(=C\C2CCOCC2)C1=O (stereo not shown) [Compound T61] |  | > 80% | > 80% |  |  | > 80% | 
Cc1cc(-c2ccc(Cl)cc2)cc(C)c1C1C(=O)C/C(=C\C2CCOCC2)C1=O (stereo not shown) [Compound T62] | > 80% | > 80% | > 80% |  |  | > 80% | 
Cc1cc(-c2ccc(F)cc2)cc(C)c1C1C(=O)CC(CC2CCOCC2)C1=O (stereo not shown) [Compound T63] |  | > 80% | > 80% |  |  | > 80% | 
Cc1cc(C)c(C2C(=O)CC(CC3CCN(C(=O)c4cc(C)nn4C)CC3)C2=O)c(C)c1 (stereo not shown) [Compound T121] | > 80% |  |  |  |  |  | 
Cc1cc(C)c(C2C(=O)CC(CC3C[C@@H]4O[C@H]3[C@@H]3C(=O)NC(=O)[C@@H]34)C2=O)c(C)c1 (stereo partly shown) [Compound T127] | > 80% |  |  |  |  |  | 
Cc1cc(Br)cc(C)c1C1C(=O)CC(CC2CCOC2)C1=O (stereo not shown) [Compound T160] |  |  |  |  | > 80% |  | 
